Square brackets hold non-standard residues; d marks the D form. Ends that are not written are not given here.
Columns and labels:
human GPR54 [1] = molecular target: T1, human GPR54 (Homo sapiens, UniProt Q969F8); test: Flow cytometric calcium flux assay, response to peptide alone (agonist / intrinsic activity); type: cell-based; parameters: host or cells: rat hematopoietic CHEM1 cells expressing endogenous Galpha15
Procedure: In vitro analyses of the effects of kisspeptin and kisspeptin antagonists, were performed using HT[…] cells (rat hematopoietic CHEM1 cells expressing endogenous Gα15 and, stably expressing the human GPR54 receptor (Millipore BV, the Netherlands), CHEM1-GPR54. Cells were counted and suspended in HBSS+++ at a concentration of 5*10^6 cells/ml. To load the cells with the fluorescent dye ester they were incubated in HBSS+++ adjusted to a concentration of 2 μM Fluo-3 AM (Molecular Probes, Life Technologies, the Netherlands) for 1h at 37°C under agitation in the dark. After incubation, the cells were washed by adding HBSS+++ to a volume of 10 ml followed by centrifugation (5 min, 150 x g) to remove excess of Fluo-3AM. […] Thereafter the tube was removed briefly and 25 μl peptide (see below) was added, after which aspiration and analysis continued. For statistical analyses fluorescent data recorded during the time interval 30-60 seconds after initiation of measurement were used. […] Experiments were performed 3 times. Representative flow cytometry results are depicted in Fig 1. […] We then assessed whether these antagonists could compete with KP10 for its receptor. […] For this purpose 25 μl quantities of the antagonists were added to 200 μl of Fluo-3 AM labelled cells (10^6 cells/ml) and incubated for 15 min. […] Peptides p354 and p356 were tested three times with both human and canine KP10; while peptides p234 and p271 were tested three times with human KP10 and once with canine KP10. […] A multivariate general linear model was set up to analyze differences in calcium response between the different concentrations, with Dunnett's test as a post hoc procedure for the antagonists and Bonferroni's test for the agonists.

kisspeptin receptor = conditions: ref unpublished data; cited from earlier work
Procedure: The following peptides were tested for antagonistic properties on the kisspeptin receptor: p234 ((D-Ala)-Asn-Trp-Asn-Gly-Phe-Gly-(D-Trp)-Arg-Phe-NH2), p271 (Arg-Arg-Met-Lys-Trp-Lys-Lys-Tyr-(D-Ala)-Asn-Trp-Asn-Gly-Phe-Gly-(D-Trp)-Arg-Phe-NH2), p354 ((D-Ala)-Tyr-Asn-Phe-Asn-Gly-Phe-Gly-(D-Trp)-Arg-Phe-NH2), and p356 ((D-Ala)-Tyr-Asn-Trp-Asn-Gly-Phe-Gly-(D-Trp)-Lys-Phe-NH2). Peptide 354 and p356 are next generation analogs refining p234.

plasma LH concentration = test: Plasma LH in anestrous Beagle bitches during antagonist infusion and after cKP10 bolus; type: in vivo, dog; conditions: n = 6; for Median (and range) plasma LH, t = 30: 30 min of antagonist infusion 50 μg/kg/h iv; for Median (and range) plasma LH, t = 60: 60 min of antagonist infusion 50 μg/kg/h iv; for Median (and range) plasma LH, t = 120: 120 min of antagonist infusion 50 μg/kg/h iv, before cKP10; for median maximum increment in plasma LH concentration after cKP10 during antagonist administration / range of maximum increment in plasma LH concentration after cKP10 during antagonist administration: antagonist 50 μg/kg/h iv, cKP10 0.5 μg/kg iv; for Median (and range) plasma LH, t = 130 / t = 10*: 10 min after cKP10 0.5 μg/kg iv; for Median (and range) plasma LH, t = 140 / t = 20*: 20 min after cKP10 0.5 μg/kg iv; for Median (and range) plasma LH, t = 180 / t = 60*: 60 min after cKP10 0.5 μg/kg iv; for Median (and range) plasma LH, Basal: before antagonist infusion (mean of -40 and 0 min per dog); for effect on basal plasma LH concentration: continuous iv 50 μg/kg/h, anestrous bitches
Description: Thirteen adult anestrous Beagle bitches were used for this study. Six dogs with a median age of 89 months (range 43–122 months) were used as control group, receiving cKP10 without an antagonist. Eight dogs with a median age of 52 months (range 31–116 months) were used for the antagonist experiments. One dog was first used in the control group and 12 months later for the antagonist experiments. Of the eight dogs used for the antagonist experiments, four received p271, p354, and p356. In two of the eight dogs both p354 and p356 were tested, while in the remaining two dogs only p271 was tested, in order to test every antagonist in 6 dogs. The time between testing of different kisspeptin antagonists was at least 5 days (range 5–15 days) to ensure that there were no peptide residues. Kisspeptin antagonist p234 per se was not tested in vivo because p271 is in fact p234 with a penetratin tag to enhance passage across the blood-brain barrier, as has been described for use with peripheral administration.
Kisspeptin antagonists (50 μg/kg/h) were administered continuously for three hours via a catheter in the cephalic vein. Two hours after the start of the infusion, a single bolus of cKP10 (0.5 μg/kg) was administered intravenously. Blood samples were collected from the jugular vein by venipuncture at -40 min and 0 min before the antagonist infusion, and then every 30 min for two hours. After the administration of cKP10, blood samples were collected at 10, 20, 40, and 60 min (i.e., 130, 140, 160, and 180 min after the start of the antagonist infusion).
As a control, KP stimulation tests (without the administration of a kisspeptin antagonist) were performed in six dogs. Blood samples were collected from the jugular vein by venipuncture at -40 min and 0 min before, and then at 10, 20, 40, and 60 min after administration of cKP10 (0.5 μg/kg). Plasma LH concentrations were measured in all blood samples.
Plasma LH concentrations were measured with a heterologous radioimmunoassay validated for the dog, as described previously. The intra- and interassay CVs for values above 0.5 μg/l were 2.3 and 10.5%, respectively, and the limit of quantitation was 0.3 μg/l.
In both groups of dogs (experimental and control), the basal plasma LH concentration was calculated for each dog as the mean of the values at –40 and 0 min before cKP10 or antagonist administration. All LH values that exceeded the mean of all basal samples plus 3 SD were attributed to pulsatile secretion and were treated as outliers and excluded from statistical analysis. Log transformation of plasma LH concentrations was used because data were not normally distributed. A linear mixed model was used to analyze differences in plasma LH concentrations before and after KP10, with or without a kisspeptin antagonist (group effects: p271, p354, p356, and controls), with Bonferroni correction. P<0.05 was considered significant.

human GPR54 [2] = molecular target: T1, human GPR54; test: Flow cytometric calcium flux assay, KP10-induced response after 15 min pre-incubation with antagonist; type: cell-based; parameters: host or cells: rat hematopoietic CHEM1 cells expressing endogenous Galpha15; conditions: 10^-8 M KP10
Procedure: In vitro analyses of the effects of kisspeptin and kisspeptin antagonists, were performed using HT[…] cells (rat hematopoietic CHEM1 cells expressing endogenous Gα15 and, stably expressing the human GPR54 receptor (Millipore BV, the Netherlands), CHEM1-GPR54. Cells were counted and suspended in HBSS+++ at a concentration of 5*10^6 cells/ml. To load the cells with the fluorescent dye ester they were incubated in HBSS+++ adjusted to a concentration of 2 μM Fluo-3 AM (Molecular Probes, Life Technologies, the Netherlands) for 1h at 37°C under agitation in the dark. After incubation, the cells were washed by adding HBSS+++ to a volume of 10 ml followed by centrifugation (5 min, 150 x g) to remove excess of Fluo-3AM. […] Thereafter the tube was removed briefly and 25 μl peptide (see below) was added, after which aspiration and analysis continued. For statistical analyses fluorescent data recorded during the time interval 30-60 seconds after initiation of measurement were used. […] We then assessed whether these antagonists could compete with KP10 for its receptor. […] For this purpose 25 μl quantities of the antagonists were added to 200 μl of Fluo-3 AM labelled cells (10^6 cells/ml) and incubated for 15 min. […] Peptides p354 and p356 were tested three times with both human and canine KP10; while peptides p234 and p271 were tested three times with human KP10 and once with canine KP10. To analyze the effects of different concentrations of the KP antagonists on the calcium response due to KP10 addition, the differences in fluorescence before and after KP10 were calculated (the calcium response). The calcium response ratios were calculated as the calcium response of the CHEM1-GPR54 cells pre-incubated with different concentrations of KP antagonist and the control (the calcium response of the cells without KP antagonist). These calcium response ratios were log transformed and used for further analysis by univariate analysis of variance, with the Dunnett's test as post hoc test. The calcium response ratios were set as dependent variables and the different concentrations of the antagonists and the two types of KP10 were used as fixed factors. The residuals were normally distributed.

[3] = antagonist infusion 50 μg/kg/h iv

T1 sequence (Q969F8 whole entry): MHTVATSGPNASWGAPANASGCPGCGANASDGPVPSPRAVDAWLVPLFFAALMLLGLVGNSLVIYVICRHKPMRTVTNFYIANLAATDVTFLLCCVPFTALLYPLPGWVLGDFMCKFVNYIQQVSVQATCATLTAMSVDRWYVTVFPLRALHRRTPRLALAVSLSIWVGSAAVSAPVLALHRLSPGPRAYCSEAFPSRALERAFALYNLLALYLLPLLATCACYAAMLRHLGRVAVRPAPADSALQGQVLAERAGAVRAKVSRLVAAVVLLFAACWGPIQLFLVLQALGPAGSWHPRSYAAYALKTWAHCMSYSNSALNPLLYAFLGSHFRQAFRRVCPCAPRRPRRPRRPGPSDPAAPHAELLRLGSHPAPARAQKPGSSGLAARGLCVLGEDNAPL

Substance: [dA]YNWNGFG[dW]KF-NH2 [p356]
- intrinsic calcium response at highest concentration (human GPR54 [1]; 10^-5 M, P = 0.001): clear calcium response
- pharmacological character on CHEM1-GPR54 cells (human GPR54 [1]; authors' conclusion): partial agonist
- binding and inhibition of kisspeptin action on inositol generation, potency range (kisspeptin receptor): nanomolar range
- Median (and range) plasma LH, t = 30 (plasma LH concentration): 4.1 (2.4–12.8) μg/L
- Median (and range) plasma LH, t = 60 (plasma LH concentration): 3.9 (2.2–7.7) μg/L
- Median (and range) plasma LH, t = 90 (plasma LH concentration; 90 min of antagonist infusion 50 μg/kg/h iv): 4.5 (2.8–6.7) μg/L
- Median (and range) plasma LH, t = 120 (plasma LH concentration): 4.9 (2.1–10.4) μg/L
- median maximum increment in plasma LH concentration after cKP10 during antagonist administration (plasma LH concentration): 8.1 µg/L
- range of maximum increment in plasma LH concentration after cKP10 during antagonist administration (plasma LH concentration): 6.3 to 18.3 µg/L
- Median (and range) plasma LH, t = 130 / t = 10* (plasma LH concentration; [3]): 12.8 (9.1–23.1) μg/L
- Median (and range) plasma LH, t = 140 / t = 20* (plasma LH concentration; [3]): 8.7 (7.1–13.4) μg/L
- Median (and range) plasma LH, t = 180 / t = 60* (plasma LH concentration; [3]): 4.7 (3.6–12.8) μg/L
- Median (and range) plasma LH, Basal (plasma LH concentration): 4.3 (2.8–6.0) μg/L
- effect on basal plasma LH concentration (plasma LH concentration): did not cause significant alterations
- calcium response ratio versus control at highest concentration (human GPR54 [2]; 10^-5 M, P<0.001, ascribed to intrinsic response, not antagonism): smaller than the negative control

Substance: [dA]YNFNGFG[dW]RF-NH2 [p354]
- intrinsic calcium response (human GPR54 [1]; any tested concentration, 10^-13 to 10^-5 M, n = 3): no significant intrinsic calcium response
- binding and inhibition of kisspeptin action on inositol generation, potency range (kisspeptin receptor): nanomolar range
- Median (and range) plasma LH, t = 30 (plasma LH concentration): 3.7 (2.1–13.1) μg/L
- Median (and range) plasma LH, t = 60 (plasma LH concentration): 3.2 (2.2–7.2) μg/L
- Median (and range) plasma LH, t = 120 (plasma LH concentration): 5.2 (2.6–15.7) μg/L
- median maximum increment in plasma LH concentration after cKP10 during antagonist administration (plasma LH concentration): 8.1 µg/L
- range of maximum increment in plasma LH concentration after cKP10 during antagonist administration (plasma LH concentration): 5.0 to 12.5 µg/L
- Median (and range) plasma LH, t = 130 / t = 10* (plasma LH concentration; [3]): 13.5 (8.4–20.3) μg/L
- Median (and range) plasma LH, t = 140 / t = 20* (plasma LH concentration; [3]): 10.0 (5.5–13.0) μg/L
- Median (and range) plasma LH, t = 160 / t = 40* (plasma LH concentration; antagonist infusion 50 μg/kg/h iv, 40 min after cKP10 0.5 μg/kg iv): 6.4 (4.7–9.1) μg/L
- Median (and range) plasma LH, t = 180 / t = 60* (plasma LH concentration; [3]): 4.7 (3.7–9.9) μg/L
- Median (and range) plasma LH, Basal (plasma LH concentration): 4.2 (2.8–6.7) μg/L
- effect on basal plasma LH concentration (plasma LH concentration): did not cause significant alterations
- difference in calcium response ratio between controls and antagonist (human GPR54 [2]; all concentrations 10^-13 to 10^-5 M, 15 min pre-incubation, P = 1.00): not significant
